*1 amine or outer side, *2 acyl side, *3 side chain or, on linkers, in order; H or OH if unused. Where a SMILES comes first, the peptide text is derived from it. [ ]: non-standard residue; d: D form. The star is where a group is joined. NHCH2(1,3-C6H4)CH2CO = O=C(Cc1cccc(CN[*:1])c1)[*:2]; F2Pmp = N[C@@H](Cc1ccc(C(F)(F)P(=O)(O)O)cc1)C(=O)O; Phenylacetyl(4-OH,3-OMe) = COc1cc(CC(=O)*)ccc1O; Benzoyl(3-Br,4-Me) = Cc1ccc(C(=O)*)cc1Br; X1 = Cc1ncsc1-c1ccc([C@H](C)N*)cc1; Hyp = O=C(O)[C@@H]1C[C@@H](O)CN1; Tle = CC(C)(C)[C@H](N)C(=O)O
Columns and labels:
PTP1B [1] = molecular target: T1, PTP1B (Homo sapiens, UniProt P18031); assay: PTP activity assay with pNPP substrate (IC50, Ki, mode of inhibition); format: biochemical; conditions: pNPP 2 mM, pH 7.0, 25° C.; read-out: IC50, nM PTP1B
T1 sequence (P18031 1-435): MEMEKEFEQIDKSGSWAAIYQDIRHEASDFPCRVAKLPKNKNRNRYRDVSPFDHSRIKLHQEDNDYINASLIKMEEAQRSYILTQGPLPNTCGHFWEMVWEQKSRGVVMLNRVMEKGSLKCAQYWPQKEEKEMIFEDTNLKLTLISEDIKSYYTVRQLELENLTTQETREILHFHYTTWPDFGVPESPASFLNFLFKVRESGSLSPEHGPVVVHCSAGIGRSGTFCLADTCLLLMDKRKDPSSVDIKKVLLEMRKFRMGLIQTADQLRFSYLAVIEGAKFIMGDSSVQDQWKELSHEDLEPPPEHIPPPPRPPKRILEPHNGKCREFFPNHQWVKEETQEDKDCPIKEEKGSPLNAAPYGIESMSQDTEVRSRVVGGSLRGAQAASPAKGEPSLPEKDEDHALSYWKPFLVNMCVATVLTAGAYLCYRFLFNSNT
How it was run: (§1)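 Hydrolysis of pNPP measured spectrophotometrically in pH 7.0 DMG buffer (EDTA, NaCl, DTT, BSA) at 25 °C, 0.4 nM enzyme. IC50 at 2 mM pNPP (Km) over an inhibitor titration; mode of inhibition and Ki from rates across varied pNPP and inhibitor levels, fitted to enzyme kinetic models.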

TC-PTP [2] = molecular target: T2, TC-PTP (Homo sapiens, UniProt P17706); assay: as above; format: biochemical; conditions: pNPP 2 mM, pH 7.0, 25° C.; read-out: IC50, nM TC-PTP
T2 sequence (P17706 1-415): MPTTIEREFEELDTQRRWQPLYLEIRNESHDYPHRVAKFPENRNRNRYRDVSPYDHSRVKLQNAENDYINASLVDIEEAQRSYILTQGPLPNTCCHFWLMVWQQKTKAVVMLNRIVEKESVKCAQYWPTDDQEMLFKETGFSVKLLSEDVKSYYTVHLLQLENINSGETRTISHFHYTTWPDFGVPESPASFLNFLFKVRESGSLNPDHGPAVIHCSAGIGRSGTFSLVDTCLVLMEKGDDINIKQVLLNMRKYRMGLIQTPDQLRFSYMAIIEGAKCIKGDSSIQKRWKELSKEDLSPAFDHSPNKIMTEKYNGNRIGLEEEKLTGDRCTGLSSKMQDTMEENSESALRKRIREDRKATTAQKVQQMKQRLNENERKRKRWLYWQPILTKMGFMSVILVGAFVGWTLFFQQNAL
How it was run: as §1

HEK293 cells = assay: Proteomic analysis for degradation selectivity in HEK293 cells; format: cell-based; conditions: 100 nM, 4 hours
Experimental: The proteome-wide degradation selectivity of compound 47 was assessed by performing quantitative mass spectrometry-based proteomic experiments to determine the range of targets degraded by compound 47 in HEK293 cells.

MC38 cells = assay: MHC-I expression in MC38 cells by flow cytometry; format: cell-based; conditions: 500 nM 16 hours, then mouse IFN-γ 48 hours
Experimental: Mouse MHC-I complex was stained with mouse H2K(b)/H2D(b) antibody and measured by flow cytometry.
After incubation, MC38 cells were trypsinized and washed in PBS+2% FBS, stained with Alexa Fluor® 647 anti-mouse H-2Kb/H-2Db Antibody against mouse MHC-I complex and then analyzed on a BD Fortessa LSR flow cytometry cell analyzer.

PTP1B [3] = molecular target: T1, PTP1B; assay: Degradation assay in HEK293 cells (immunoblotting); format: cell-based; parameters: endogenous in cells; host or cells: HEK293; conditions: 0.2 μM degrader, 16 hours
TC-PTP [4] = molecular target: T2, TC-PTP; assay: Degradation assay in HEK293 cells (immunoblotting); format: cell-based; parameters: endogenous in cells; host or cells: HEK293; conditions: 0.2 μM degrader, 16 hours, read-out: % Protein Degradation TC-PTP
TC-PTP [5] = molecular target: T2, TC-PTP; assay: Degradation assay in HEK293 cells (immunoblotting); format: cell-based; parameters: Degradation assay was conducted in HEK293 cells with 1 μM degrader and 24 hours incubation; endogenous in cells; host or cells: HEK293; conditions: 16 hours, dose response

**Q.** `COc1cc(CC(=O)N[C@@H](Cc2ccccc2)C(=O)N[C@@H](Cc2ccc(C(F)(F)P(=O)(O)O)cc2)C(=O)N[C@@H](CCCCNC(=O)c2ccc(C)c(Br)c2)C(=O)NCc2cccc(CC(=O)N[C@H](C(=O)N3C[C@H](O)C[C@H]3C(=O)N[C@@H](C)c3ccc(-c4scnc4C)cc3)C(C)(C)C)c2)ccc1O` [Compound 47, ((4-((S)-3-(((S)-6-(3-bromo-4-methylbenzamido)-1-((3-(2-(((S)-1-((2S,4R)-4-hydroxy-2-(((S)-1-(4-(4-methylthiazol-5-yl)phenyl)ethyl)carbamoyl)pyrrolidin-1-yl)-3,3-dimethyl-1-oxobutan-2-yl)amino)-2-oxoethyl)benzyl)amino)-1-oxohexan-2-yl)amino)-2-((S)-2-(2-(4-hydroxy-3-methoxyphenyl)acetamido)-3-phenylpropanamido)-3-oxopropyl)phenyl)difluoromethyl)phosphonic Acid] ({Phenylacetyl(4-OH,3-OMe)}-F[F2Pmp]K(Benzoyl(3-Br,4-Me))[NHCH2(1,3-C6H4)CH2CO][Tle][Hyp]-X1) was tested. Which IC50 (PTP1B [1]) did it give?
**A.** Its IC50 is 24.2 ± 1.7 nM.

**Q.** What about the IC50 (TC-PTP [2]) of the same molecule?
**A.** The IC50 was 30.1 ± 2.3 nM.

**Q.** And the proteome-wide degradation selectivity (HEK293 cells)?
**A.** The proteome-wide degradation selectivity was “PTP1B was the only protein whose levels were significantly reduced”.

**Q.** What about the MHC-I expression (MC38 cells) of the same molecule?
**A.** The MHC-I expression was “elevated expression of MHC-I”.

**Q.** What about the “% Protein Degradation PTP1B” value (PTP1B [3]) of the same molecule?
**A.** The value was 95%.

**Q.** What about the percent TC-PTP degradation at 0.2 µM (TC-PTP [4]) of the same molecule?
**A.** Its percent TC-PTP degradation at 0.2 µM is 92%.

**Q.** What about the TC-PTP degradation (TC-PTP [5]) of the same molecule?
**A.** Its TC-PTP degradation is “dose-dependently induced degradation of TC-PTP”.

Reference: patent US20260240878A1, “PTP1B/TC-PTP DUAL INHIBITORS AND PROTEIN DEGRADERS” (Purdue Research Foundation, priority 2023, published 2026)
